Laboratory results published in the supplement of paper PMC12317010.
Counter-ions that a name gives are not always drawn.

Assay: collision cross section in nitrogen (drift tube, single-field); higher = larger gas-phase ion size
[1] = ion source: ESI, ion mode: Positive, ion type: [M]+ (permanent cation)
[2] = ion type: [M+Na], ion source: ESI, ion mode: Positive
[3] = ion type: [M+H], ion source: APCI, ion mode: Positive
[4] = ion type: [M+H], ion source: ESI, ion mode: Positive
[5] = ion type: [M-H], ion source: ESI, ion mode: Negative
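Also: chemical standards at 10 µM analysed by drift tube IMS-QTOF MS in about 3.95 torr nitrogen, mean of duplicate injections differing ≤1%, mass error below 10 ppm.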

| Structure (SMILES) | collision cross section in nitrogen [2] [Å²] | collision cross section in nitrogen [3] [Å²] | collision cross section in nitrogen [4] [Å²] | collision cross section in nitrogen [5] [Å²] | collision cross section in nitrogen [1] [Å²] |
| --- | --- | --- | --- | --- | --- |
| CC[N+](CC)(CC)Cc1ccccc1 [Benzyl trialkyl ammonium compound C2:C2:C2 (BTAAC C2:C2:C2)] | – | – | – | – | 143.1 |
| C[N+](C)(C)Cc1ccccc1 [Benzyltrimethylammonium chloride] | – | – | – | – | 131.9 |
| C[N+](C)(C)Cc1ccccc1 [Benzyltrimethylammonium hydroxide] | – | – | – | – | 131.3 |
| COc1ccc(-c2ccccc2)cc1NNC(=O)OC(C)C [Bifenazate] | 185.7 | – | – | – | – |
| CC(C)=C[C@@H]1[C@@H](C(=O)OCc2coc(Cc3ccccc3)c2)C1(C)C [Bioresmethrin] | 188.3 | – | – | – | – |
| CCCCOCCOC(=O)CCCCCCCCC(=O)OCCOCCCC [Bis(2-butoxyethyl) decanedioate] | 197.8 | – | – | – | – |
| CCCCOCCOC(=O)c1ccccc1C(=O)OCCOCCCC [Bis(2-butoxyethyl) phthalate] | 187.5 | – | – | – | – |
| CCCCC(CC)COC(=O)c1c(Br)c(Br)c(Br)c(Br)c1C(=O)OCC(CC)CCCC (centres undefined) [Bis(2-ethylhexyl) tetrabromophthalate] | 240.6 | – | – | – | – |
| CCCCC(CC)COC(=O)CCCCC(=O)OCC(CC)CCCC (centres undefined) [Bis(2-ethylhexyl)hexanedioate] | 216.5 | – | – | – | – |
| CN(C)c1ccc(C(=O)c2ccc(N(C)C)cc2)cc1 [Bis(4-(dimethylamino)phenyl)methanone] | 175.8 | 166.8 | 166.5 | – | – |
| Oc1ccc(Cc2ccc(O)cc2)cc1 [Bis(4-hydroxyphenyl)methane] | – | – | – | 153.6 | – |
| CC(C)(c1ccc(O)c(-c2ccccc2)c1)c1ccc(O)c(-c2ccccc2)c1 [BisOPP-A] | – | – | – | 204 | – |
| CCCCOCCOCCOC(=O)CCCCC(=O)OCCOCCOCCCC [Bis[2-(2-butoxyethoxy)ethyl] adipate] | 198.8 | 203.8 | 205.4 | – | – |
| c1cc(OCC2CO2)ccc1Cc1ccc(OCC2CO2)cc1 (centres undefined) [Bis[4-(glycidyloxy)phenyl]methane] | 169 | – | – | – | – |
| CC(C)(c1ccc(OCC2CO2)cc1)c1ccc(OCC2CO2)cc1 (centres undefined) [Bisphenol A diglycidyl ether] | 176.7 | – | – | – | – |
| Oc1ccc(C(c2ccc(O)cc2)(C(F)(F)F)C(F)(F)F)cc1 [Bisphenol AF] | – | – | – | 165.6 | – |
| CCC(C)(c1ccc(O)cc1)c1ccc(O)cc1 [Bisphenol B] | – | – | – | 165.8 | – |
| CC(c1ccc(O)cc1)c1ccc(O)cc1 [Bisphenol E] | – | – | – | 158.3 | – |
| CC(C)(c1ccc(O)cc1)c1ccc(C(C)(C)c2ccc(O)cc2)cc1 [Bisphenol P] | – | – | – | 180.1 | – |
| COc1cc(OC)nc(Oc2cccc(Oc3nc(OC)cc(OC)n3)c2C(=O)O)n1 [Bispyribac-sodium] | 198.6 | 198.3 | 198.5 | 187.4 | – |
| O=C(Nc1ccccc1-c1ccc(Cl)cc1)c1cccnc1Cl [Boscalid] | – | – | 175.5 | 177.1 | – |
| CCC(C)n1c(=O)[nH]c(C)c(Br)c1=O (centres undefined) [Bromacil] | – | – | – | 146.6 | – |
| O=c1oc2ccccc2c(O)c1C(CC(O)c1ccc(-c2ccc(Br)cc2)cc1)c1ccccc1 (centres undefined) [Bromadiolone] | 239.5 | – | – | 215.1 | – |
| CC(C)C[C@H]1C(=O)N2CCC[C@H]2[C@]2(O)O[C@](NC(=O)[C@@H]3C=C4c5cccc6[nH]c(Br)c(c56)C[C@H]4N(C)C3)(C(C)C)C(=O)N12 [Bromocriptine mesylate] | 248.5 | 242.9 | 247.4 | 251.7 | – |
| O=S1(=O)OC(c2cc(Br)c(O)c(Br)c2)(c2cc(Br)c(O)c(Br)c2)c2ccccc21 [Bromophenol blue] | – | – | – | 214.2 | – |
| N#Cc1cc(Br)c(O)c(Br)c1 [Bromoxynil] | – | – | – | 131.2 | – |
| Clc1ccc(C2(Cn3cncn3)CC(Br)CO2)c(Cl)c1 (centres undefined) [Bromuconazole] | – | 172.7 | 172.6 | – | – |
| COc1cc2c(cc1OC)[C@@]13CCN4CC5=CCO[C@H]6CC(=O)N2[C@H]1[C@H]6[C@H]5C[C@H]43 [Brucine] | 204.6 | 191.3 | 194.1 | – | – |
| CCCCc1c(C)nc(NCC)nc1OS(=O)(=O)N(C)C [Bupirimate] | 181.8 | 175.8 | 175.8 | 175.9 | – |
| CC(C)N1C(=O)N(c2ccccc2)CSC1=NC(C)(C)C [Buprofezin] | 188 | 173.6 | 173.9 | – | – |

Second part, led by results:

| collision cross section in nitrogen [2] [Å²] | collision cross section in nitrogen [3] [Å²] | collision cross section in nitrogen [4] [Å²] | collision cross section in nitrogen [5] [Å²] | Structure (SMILES) | collision cross section in nitrogen [1] [Å²] |
| --- | --- | --- | --- | --- | --- |
| 191.9 | – | – | – | CCCCC(CC)COC(=O)CCCCC(=O)OCc1ccccc1 (centres undefined) [Benzyloctyl adipate] | – |
| 202 | 203.6 | 203.4 | 188.5 | O=c1[nH]c2ccc(S(=O)CCN3CCC(Cc4ccc(F)cc4)CC3)cc2o1 (centres undefined) [Besonprodil] | – |
| 133.3 | – | 121.4 | – | C[N+](C)(C)CC(=O)[O-] [Betaine] | – |
| 211.7 | – | – | 199.8 | C[C@H]1C[C@H]2[C@@H]3CCC4=CC(=O)C=C[C@]4(C)[C@@]3(F)[C@@H](O)C[C@]2(C)[C@@]1(O)C(=O)COP(=O)(O)O [Betamethasone 21-phosphate disodium] | – |
| – | – | – | 215.5 | CCCCC(=O)O[C@]1(C(=O)CO)[C@@H](C)C[C@H]2[C@@H]3CCC4=CC(=O)C=C[C@]4(C)[C@@]3(F)[C@@H](O)C[C@@]21C [Betamethasone valerate] | – |
| 215.2 | – | 177.2 | – | C[C@H]1C[C@H]2[C@@H]3CCC4=CC(=O)C=C[C@]4(C)[C@@]3(F)[C@@H](O)C[C@]2(C)[C@@]1(O)C(=O)CO [Betamethasone] | – |
| – | – | – | 208.7 | C=C(c1ccc(C(=O)O)cc1)c1cc2c(cc1C)C(C)(C)CCC2(C)C [Bexarotene] | – |
| 189 | 178.5 | 177.8 | – | CC(C)(Oc1ccc(CCNC(=O)c2ccc(Cl)cc2)cc1)C(=O)O [Bezafibrate] | – |
| 175 | 164.6 | 164.1 | 168 | COc1ccc(-c2coc3cc(O)cc(O)c3c2=O)cc1 [Biochanin A] | – |
| 159.6 | 149.9 | 149.3 | 155.5 | O=C(O)CCCC[C@@H]1SC[C@H]2NC(=O)N[C@@H]12 [Biotin] | – |
| – | 189.6 | 190.5 | – | CC(C)c1cccc(C(C)C)c1N=C=Nc1c(C(C)C)cccc1C(C)C [Bis(2,6-diisopropylphenyl)carbodiimide] | – |
| 224.2 | – | – | – | CCCCC(CC)COC(=O)CCCCCCCCC(=O)OCC(CC)CCCC (centres undefined) [Bis(2-ethylhexyl) decanedioate] | – |
| 207.2 | – | – | – | CCCCC(CC)COC(=O)/C=C\C(=O)OCC(CC)CCCC (centres undefined) [Bis(2-ethylhexyl) maleate] | – |
| 222.3 | – | – | – | CCCCC(CC)COC(=O)CCCCCCCC(=O)OCC(CC)CCCC (centres undefined) [Bis(2-ethylhexyl) nonanedioate] | – |
| 201 | – | – | 187 | CCCCC(CC)COP(=O)(O)OCC(CC)CCCC (centres undefined) [Bis(2-ethylhexyl) phosphate] | – |
| 219.6 | – | – | – | CC(CCOC(=O)c1ccccc1C(=O)OCC[C@@H](C)CC(C)(C)C)CC(C)(C)C (some centres undefined) [Bis(3,5,5-trimethylhexyl) phthalate] | – |
| 169.5 | – | – | – | C=C(C)C(=O)OCCOP(=O)(O)OCCOC(=O)C(=C)C [Bis(methacryloyloxyethyl) hydrogen phosphate] | – |
| 182.7 | 197.5 | – | 174.3 | O=C1C=CC(=O)N1c1ccc(Cc2ccc(N3C(=O)C=CC3=O)cc2)cc1 [Bismaleimide] | – |
| 215.5 | – | – | – | C=C(C)C(=O)OCC(O)COc1ccc(C(C)(C)c2ccc(OCC(O)COC(=O)C(=C)C)cc2)cc1 (centres undefined) [Bisphenol A glycidyl methacrylate] | – |
| – | – | – | 161.9 | CC(C)(c1ccc(O)cc1)c1ccc(O)cc1 [Bisphenol A] | – |
| – | – | 154.7 | 168.8 | Oc1c(Cl)cc(Cl)cc1Sc1cc(Cl)cc(Cl)c1O [Bithionol] | – |
| 234.4 | 229.9 | 229.4 | 232.9 | COc1ccccc1Oc1c(NS(=O)(=O)c2ccc(C(C)(C)C)cc2)nc(-c2ncccn2)nc1OCCO [Bosentan hydrate] | – |
| – | – | – | 169.2 | Nc1c(S(=O)(=O)O)cc(Br)c2c1C(=O)c1ccccc1C2=O [Bromamine acid sodium salt] | – |
| – | – | – | 217 | Cc1c(C2(c3cc(Br)c(O)c(Br)c3C)OS(=O)(=O)c3ccccc32)cc(Br)c(O)c1Br [Bromcresol green] | – |
| – | 167.1 | 167.8 | – | CN(C)CCC(c1ccc(Br)cc1)c1ccccn1 (centres undefined) [Brompheniramine hydrogen maleate] | – |
| 230.4 | – | – | 204.6 | CCCC1O[C@@H]2C[C@H]3[C@@H]4CCC5=CC(=O)C=C[C@]5(C)[C@H]4[C@@H](O)C[C@]3(C)[C@]2(C(=O)CO)O1 (some centres undefined) [Budesonide] | – |
| 178.9 | 176 | 176.1 | – | COc1cc(OC)c(C(=O)CCCN2CCCC2)c(OC)c1 [Buflomedil hydrochloride] | – |
| – | – | – | 183.2 | Cc1cc(-n2nc3ccc(Cl)cc3n2)c(O)c(C(C)(C)C)c1 [Bumetrizole] | – |
